Source: patent publication US11078202B2, “β-lactamase inhibitor and use thereof” (priority 2018, dated 2021)
Structures can show the parent of a compound that is named as a salt.

How the values were obtained:
Format in all cases: cell-based
[1] = system: Acinetobacter baumannii XNWB 0007; assay: MIC assay of test compounds combined with ceftazidime (8 μg/mL); details: ceftazidime 8 μg/mL fixed
In short: (§1)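 Here, growth inhibition was scored visually following CLSI guidelines once plates containing compound, fixed-dose β-lactam and diluted inoculum had stood 16-20 h at 35±2 °C. Cells were taken from TSA colonies, brought to OD600 0.1-0.15 in 0.9% NaCl, then diluted 300-fold in 1.1×CAMHB.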

[2] = system: Klebsiella pneumoniae XNWB 0001; assay: as above; details: ceftazidime 8 μg/mL fixed
In short: as §1

[3] = system: Klebsiella pneumoniae XNWB 0002; assay: as above; details: ceftazidime 8 μg/mL fixed
In short: as §1

[4] = system: Klebsiella pneumoniae XNWB 0003; assay: as above; details: ceftazidime 8 μg/mL fixed
In short: as §1

[5] = system: Klebsiella pneumoniae XNWB 0004; assay: as above; details: ceftazidime 8 μg/mL fixed
In short: as §1

[6] = system: Klebsiella pneumoniae XNWB 0005; assay: as above; details: ceftazidime 8 μg/mL fixed
In short: as §1

[7] = system: Klebsiella pneumoniae XNWB 0006; assay: as above; details: ceftazidime 8 μg/mL fixed
In short: as §1

[8] = system: Pseudomonas aeruginosa XNWB 0008; assay: as above; details: ceftazidime 8 μg/mL fixed
In short: as §1

[9] = system: Acinetobacter baumannii XNWB 0007; assay: MIC assay of test compounds combined with imipenem (4 μg/mL); details: imipenem 4 μg/mL fixed
In short: as §1

[10] = system: Klebsiella pneumoniae XNWB 0001; assay: as above; details: imipenem 4 μg/mL fixed
In short: as §1

[11] = system: Klebsiella pneumoniae XNWB 0002; assay: as above; details: imipenem 4 μg/mL fixed
In short: as §1

[12] = system: Klebsiella pneumoniae XNWB 0003; assay: as above; details: imipenem 4 μg/mL fixed
In short: as §1

[13] = system: Klebsiella pneumoniae XNWB 0004; assay: as above; details: imipenem 4 μg/mL fixed
In short: as §1

[14] = system: Klebsiella pneumoniae XNWB 0005; assay: as above; details: imipenem 4 μg/mL fixed
In short: as §1

[15] = system: Klebsiella pneumoniae XNWB 0006; assay: as above; details: imipenem 4 μg/mL fixed
In short: as §1

[16] = system: Pseudomonas aeruginosa XNWB 0008; assay: as above; details: imipenem 4 μg/mL fixed
In short: as §1

| SMILES | The minimum concentration of test compounds combined with ceftazidime (8 μg/mL) for bacteriostasis [1] | The minimum concentration of test compounds combined with ceftazidime (8 μg/mL) for bacteriostasis [2] | The minimum concentration of test compounds combined with ceftazidime (8 μg/mL) for bacteriostasis [3] | The minimum concentration of test compounds combined with ceftazidime (8 μg/mL) for bacteriostasis [4] | The minimum concentration of test compounds combined with ceftazidime (8 μg/mL) for bacteriostasis [5] | The minimum concentration of test compounds combined with ceftazidime (8 μg/mL) for bacteriostasis [6] | The minimum concentration of test compounds combined with ceftazidime (8 μg/mL) for bacteriostasis [7] | The minimum concentration of test compounds combined with ceftazidime (8 μg/mL) for bacteriostasis [8] | The minimum concentration of test compounds combined with imipenem (4 μg/mL) for bacteriostasis [9] | The minimum concentration of test compounds combined with imipenem (4 μg/mL) for bacteriostasis [10] | The minimum concentration of test compounds combined with imipenem (4 μg/mL) for bacteriostasis [11] | The minimum concentration of test compounds combined with imipenem (4 μg/mL) for bacteriostasis [12] | The minimum concentration of test compounds combined with imipenem (4 μg/mL) for bacteriostasis [13] | The minimum concentration of test compounds combined with imipenem (4 μg/mL) for bacteriostasis [14] | The minimum concentration of test compounds combined with imipenem (4 μg/mL) for bacteriostasis [15] | The minimum concentration of test compounds combined with imipenem (4 μg/mL) for bacteriostasis [16] |
| --- | --- | --- | --- | --- | --- | --- | --- | --- | --- | --- | --- | --- | --- | --- | --- | --- |
| N=C(N)N1CCC(NCCc2cc([C@@H]3CC4(CC4)[C@@H]4CN3C(=O)N4OS(=O)(=O)O)no2)CC1 [Example 47, (1R,4S)-4-(5-(2-((1-amidinopiperidin-4-yl)amino)ethyl)isoxazol-3-yl)-6-oxo-5,7-diazaspiro[bicyclo[3.2.1]octane-2,1′-cyclopropan]-7-yl sulfate] | C (C: 16-128 μg/mL) | B (B: 8-16 μg/mL) | A (A: <8 μg/mL) | C (C: 16-128 μg/mL) | C (C: 16-128 μg/mL) | C (C: 16-128 μg/mL) | B (B: 8-16 μg/mL) | C (C: 16-128 μg/mL) | C (C: 16-128 μg/mL) | A (A: <8 μg/mL) | A (A: <8 μg/mL) | A (A: <8 μg/mL) | A (A: <8 μg/mL) | A (A: <8 μg/mL) | A (A: <8 μg/mL) | A (A: <8 μg/mL) |
| NCCCCc1nnc([C@@H]2CC3(CC3)[C@@H]3CN2C(=O)N3OS(=O)(=O)O)o1 [Example 7, (1R,4S)-4-(5-(4-aminobutyl)-1,3,4-oxadiazol-2-yl)-6-oxo-5,7-diazaspiro[bicycle[3.2.1]octane-2,1′-cyclopropan]-7-yl sulfate] | C (C: 16-128 μg/mL) | B (B: 8-16 μg/mL) | A (A: <8 μg/mL) | B (B: 8-16 μg/mL) | B (B: 8-16 μg/mL) | B (B: 8-16 μg/mL) | A (A: <8 μg/mL) | C (C: 16-128 μg/mL) | B (B: 8-16 μg/mL) | A (A: <8 μg/mL) | A (A: <8 μg/mL) | A (A: <8 μg/mL) | A (A: <8 μg/mL) | A (A: <8 μg/mL) | A (A: <8 μg/mL) | B (B: 8-16 μg/mL) |
| N=C1NC[C@H](c2nnc([C@@H]3CC4(CC4)[C@@H]4CN3C(=O)N4OS(=O)(=O)O)o2)N1 [Example 56, (1R,4S)-4-(5-((R)-2-iminoimidazolidin-4-yl)-1,3,4-oxadiazol-2-yl)-6-oxo-5,7-diazaspiro[bicyclo[3.2.1]octane-2,1′-cyclopropan]-7-yl sulfate] | C (C: 16-128 μg/mL) | A (A: <8 μg/mL) | A (A: <8 μg/mL) | A (A: <8 μg/mL) | A (A: <8 μg/mL) | A (A: <8 μg/mL) | A (A: <8 μg/mL) | B (B: 8-16 μg/mL) | B (B: 8-16 μg/mL) | A (A: <8 μg/mL) | A (A: <8 μg/mL) | A (A: <8 μg/mL) | A (A: <8 μg/mL) | A (A: <8 μg/mL) | A (A: <8 μg/mL) | B (B: 8-16 μg/mL) |
| O=C1N2C[C@H](N1OS(=O)(=O)O)C1(CC1)C[C@H]2c1nnc(CC2CNC2)o1 [Example 23, (1R,4S)-4-(5-(azetidin-3-ylmethyl)-1,3,4-oxadiazol-2-yl)-6-oxo-5,7-diazaspiro[bicycle [3.2.1]octane-2,1′-cyclopropan]-7-yl sulfate] | C (C: 16-128 μg/mL) | A (A: <8 μg/mL) | A (A: <8 μg/mL) | A (A: <8 μg/mL) | A (A: <8 μg/mL) | A (A: <8 μg/mL) | A (A: <8 μg/mL) | B (B: 8-16 μg/mL) | B (B: 8-16 μg/mL) | A (A: <8 μg/mL) | A (A: <8 μg/mL) | A (A: <8 μg/mL) | A (A: <8 μg/mL) | A (A: <8 μg/mL) | A (A: <8 μg/mL) | A (A: <8 μg/mL) |
| NC1CC(c2cc([C@@H]3CC4(CC4)[C@@H]4CN3C(=O)N4OS(=O)(=O)O)no2)C1 (single isomer, unassigned) [Example 52] | C (C: 16-128 μg/mL) | A (A: <8 μg/mL) | A (A: <8 μg/mL) | B (B: 8-16 μg/mL) | B (B: 8-16 μg/mL) | B (B: 8-16 μg/mL) | A (A: <8 μg/mL) | C (C: 16-128 μg/mL) | C (C: 16-128 μg/mL) | A (A: <8 μg/mL) | A (A: <8 μg/mL) | A (A: <8 μg/mL) | A (A: <8 μg/mL) | A (A: <8 μg/mL) | A (A: <8 μg/mL) | A (A: <8 μg/mL) |
